# Data from patent US20100249071A1, “Modulators of S1P and Methods of Making And Using” (Exelixis, Inc., priority 2009, published 2010).
# Read-outs that look alike come from different tables or passages of the source.
# How the values were obtained:
# [1] = target: T1, hS1P1R (hEdg1) membrane protein (Homo sapiens, UniProt P21453); assay: hS1P1R GTPγS binding assay (Assay 3a); format: biochemical
# T1 construct: purchased Lonza
# Summary of the method: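 Membranes (4 μg) expressing hS1P1R incubated 1 h at room temperature with 30 μM GDP, 0.1 nM [^35S]GTPγS, 0.25% fatty acid free BSA and serially diluted agonist in Tris-HCl pH 7.9/NaCl/MgCl2/EGTA buffer. Bound [^35S]GTPγS captured on WGA SPA beads (further 1 h) and counted.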
# [2] = target: T2, hS1PR5 (hEdg8) membrane protein (Homo sapiens, UniProt Q9H228); assay: hS1P5R GTPγS binding assay (Assay 4); format: biochemical
# T2 construct: expressed in transfected cells; host or cells: CHO
# T2 sequence (Q9H228 whole entry): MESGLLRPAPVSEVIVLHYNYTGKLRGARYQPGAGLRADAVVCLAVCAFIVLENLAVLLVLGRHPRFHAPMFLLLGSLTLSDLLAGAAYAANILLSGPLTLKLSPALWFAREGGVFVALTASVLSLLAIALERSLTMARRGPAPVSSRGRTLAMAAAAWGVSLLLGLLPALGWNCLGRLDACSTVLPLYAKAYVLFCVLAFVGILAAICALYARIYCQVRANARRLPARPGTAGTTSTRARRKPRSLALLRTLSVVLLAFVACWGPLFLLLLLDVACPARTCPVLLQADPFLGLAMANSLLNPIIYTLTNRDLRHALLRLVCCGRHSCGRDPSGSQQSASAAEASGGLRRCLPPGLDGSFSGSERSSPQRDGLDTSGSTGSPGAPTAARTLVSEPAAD
# Summary of the method: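 Membranes (5 μg) from CHO cells expressing hS1PR5, incubated 1 h at room temperature with 30 μM GDP, 0.1 nM [35S]GTPγS, 0.25% fatty acid free BSA and serially diluted compound in pH 7.9 Tris buffer with MgCl2. WGA SPA beads added for another 1 h, then bound [35S]GTPγS counted by scintillation.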
# S1P3 = target: T3, S1P3 (Homo sapiens, UniProt Q99500); assay: S1P3 Tango β-arrestin recruitment assay in HEK293 cells (Assay 5); format: cell-based
# T3 construct: host or cells: HEK293 (transient transfection)
# T3 sequence (P32121 whole entry): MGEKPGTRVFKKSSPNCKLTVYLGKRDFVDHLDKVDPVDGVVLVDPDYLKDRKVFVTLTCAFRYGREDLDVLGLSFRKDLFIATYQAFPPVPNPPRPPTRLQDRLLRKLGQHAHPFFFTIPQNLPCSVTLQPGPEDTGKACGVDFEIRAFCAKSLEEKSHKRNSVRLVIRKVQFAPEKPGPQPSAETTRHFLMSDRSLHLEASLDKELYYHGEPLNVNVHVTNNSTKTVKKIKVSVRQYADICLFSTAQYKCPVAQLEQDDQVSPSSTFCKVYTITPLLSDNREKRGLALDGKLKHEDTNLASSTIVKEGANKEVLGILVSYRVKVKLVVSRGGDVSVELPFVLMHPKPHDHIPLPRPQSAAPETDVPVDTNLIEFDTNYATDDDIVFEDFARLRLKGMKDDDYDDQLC
# T3 sequence (Q99500 whole entry): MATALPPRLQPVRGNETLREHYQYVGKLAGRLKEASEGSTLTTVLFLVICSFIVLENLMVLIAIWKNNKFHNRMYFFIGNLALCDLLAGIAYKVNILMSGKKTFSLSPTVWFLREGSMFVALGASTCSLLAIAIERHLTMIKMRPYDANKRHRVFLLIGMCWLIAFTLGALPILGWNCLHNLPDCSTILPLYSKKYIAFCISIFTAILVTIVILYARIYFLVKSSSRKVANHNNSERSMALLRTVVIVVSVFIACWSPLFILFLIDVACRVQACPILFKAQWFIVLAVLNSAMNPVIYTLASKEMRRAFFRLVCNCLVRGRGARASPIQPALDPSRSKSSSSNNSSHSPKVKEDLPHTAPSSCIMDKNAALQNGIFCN
# Summary of the method: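 HEK293 cells transiently expressing S1P3 fused via TEV-cleavable linker to tTA, with β-arrestin2–TEV, treated 16-18 h at 37 °C with compounds (top 10 μM, 10-point 3-fold, 1% DMSO). Luciferase reporter luminescence normalised to DMSO background and 5 μM S1P control as percent activity; EC50 from concentration-response curves.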
# S1P1 = target: T4, S1P1 (Homo sapiens, UniProt P21453); assay: Tango β-arrestin recruitment assay in U2OS cells (Assay 2b); format: cell-based
# T4 construct: host or cells: U2OS
# T4 sequence (P32121 whole entry): as the sequence (P32121 whole entry) above
# T4 sequence (P21453 whole entry): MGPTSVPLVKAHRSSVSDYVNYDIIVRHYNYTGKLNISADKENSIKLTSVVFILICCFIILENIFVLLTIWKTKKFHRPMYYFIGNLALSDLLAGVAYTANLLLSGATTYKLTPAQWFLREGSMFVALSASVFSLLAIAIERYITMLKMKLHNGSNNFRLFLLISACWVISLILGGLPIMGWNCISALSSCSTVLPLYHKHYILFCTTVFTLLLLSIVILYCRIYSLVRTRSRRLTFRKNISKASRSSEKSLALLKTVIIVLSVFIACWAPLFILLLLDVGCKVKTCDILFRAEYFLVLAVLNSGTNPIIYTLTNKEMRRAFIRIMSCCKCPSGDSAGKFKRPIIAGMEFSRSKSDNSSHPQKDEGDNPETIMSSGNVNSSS
# Summary of the method: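 In this agonist-mode Tango assay, U2OS cells carrying S1P1 and the reporter were serum-starved 48 h, then exposed overnight at 37 °C to compound (10 points, 3-fold, top 1 μM, 1% DMSO). β-Lactamase F460/F530 ratio was normalized to 1 μM S1P, and EC50 was fitted.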
# [3] = * = rEC50 measured rather than EC50, read-out: Assay 5 rEC50 (relative EC50, cells marked *)
# T1 sequence (P21453 whole entry): as above
EC50 [1] [nM],EC50 [2] [nM],EC50 (S1P3; [3]) [nM],EC50 (S1P1; read-out: Assay 2b EC50) [nM],EC50 (S1P3; read-out: Assay 5 EC50) [nM],"EC50 (S1P1; * = rEC50 measured rather than EC50, read-out: Assay 2b rEC50 (relative EC50, cells marked *)) [nM]",SMILES
≤ 10,≤ 10,≤ 250,≤ 10,,,"CC(C)Oc1ccc(-c2nnc(-c3cc(F)c(OC[C@@H](N)[C@H](C)OP(=O)(O)O)cc3Cl)s2)cc1Cl [Entry 64, (1S,2R)-2-amino-3-{[5-chloro-4-(5-{3-chloro-4-[(1-methylethyl)oxy]phenyl}-1,3,4-thiadiazol-2-yl)-2-fluorophenyl]oxy}-1-methylpropyl dihydrogen phosphate]"
50 to 250,2800 to 10000,,10 to 50,> 10000,,"Cc1cc(-c2nnc(-c3cc(F)c(OC[C@H](N)[C@@H](C)O)cc3Cl)s2)cnc1NC(C)C [Entry 65, (2R,3S)-3-amino-4-{[5-chloro-2-fluoro-4-(5-{5-methyl-6-[(1-methylethyl)amino]pyridin-3-yl}-1,3,4-thiadiazol-2-yl)phenyl]oxy}butan-2-ol]"
10 to 50,250 to 2800,,≤ 10,> 10000,,"Cc1cc(-c2nnc(-c3cc(F)c(OC[C@@H](N)[C@@H](C)O)cc3Cl)s2)cnc1NC(C)C [Entry 67, (2R,3R)-3-amino-4-{[5-chloro-2-fluoro-4-(5-{5-methyl-6-[(1-methylethyl)amino]pyridin-3-yl}-1,3,4-thiadiazol-2-yl)phenyl]oxy}butan-2-ol]"
50 to 250,250 to 2800,,≤ 10,> 10000,,"CC(C)Nc1ccc(-c2nnc(-c3cc(F)c(OC[C@@H](N)[C@@H](C)O)cc3Cl)s2)cn1 [Entry 68, (2R,3R)-3-amino-4-{[5-chloro-2-fluoro-4-(5-{6-[(1-methylethyl)amino]pyridin-3-yl}-1,3,4-thiadiazol-2-yl)phenyl]oxy}butan-2-ol]"
≤ 10,10 to 50,> 250,≤ 10,,,"CC(C)Oc1ccc(-c2nnc(-c3cc(F)c(OC[C@H](N)[C@H](C)OP(=O)(O)O)cc3Cl)s2)cc1Cl [Entry 69, (1S,2S)-2-amino-3-{[5-chloro-4-(5-{3-chloro-4-[(1-methylethyl)oxy]phenyl}-1,3,4-thiadiazol-2-yl)-2-fluorophenyl]oxy}-1-methylpropyl dihydrogen phosphate]"
≤ 10,≤ 10,,≤ 10,≤ 250,,"CC(C)Oc1ccc(-c2nnc(-c3cc(F)c(OC[C@@H](N)[C@@H](C)OP(=O)(O)O)cc3Cl)s2)cc1Cl [Entry 70, (1R,2R)-2-amino-3-{[5-chloro-4-(5-{3-chloro-4-[(1-methylethyl)oxy]phenyl}-1,3,4-thiadiazol-2-yl)-2-fluorophenyl]oxy}-1-methylpropyl dihydrogen phosphate]"
≤ 10,10 to 50,,,≤ 250,≤ 10,"CC(C)Oc1ccc(-c2nnc(-c3cc(F)c(OC[C@@H](N)[C@H](C)O)cc3Cl)s2)cc1Cl [Entry 71, (2S,3R)-3-amino-4-{[5-chloro-4-(5-{3-chloro-4-[(1-methylethyl)oxy]phenyl}-1,3,4-thiadiazol-2-yl)-2-fluorophenyl]oxy}butan-2-ol]"
≤ 10,10 to 50,,≤ 10,> 250,,"CC(C)Oc1ccc(-c2nnc(-c3cc(F)c(OC[C@@H](N)[C@@H](C)O)cc3Cl)s2)cc1Cl [Entry 74, (2R,3R)-3-amino-4-{[5-chloro-4-(5-{3-chloro-4-[(1-methylethyl)oxy]phenyl}-1,3,4-thiadiazol-2-yl)-2-fluorophenyl]oxy}butan-2-ol]"
250 to 2800,250 to 2800,,10 to 50,> 10000,,"CC(C)Nc1ccc(-c2nnc(-c3cc(F)c(OC[C@H](N)CO)cc3Cl)s2)cn1 [Entry 75, (2R)-2-amino-3-{[5-chloro-2-fluoro-4-(5-{6-[(1-methylethyl)amino]pyridin-3-yl}-1,3,4-thiadiazol-2-yl)phenyl]oxy}propan-1-ol]"
